We go through one compound from US20240197687A1, “METHODS OF TREATING NEUROINFLAMMATION AND INHIBITING MONOAMINE OXIDASE-A AND RESTORING/UPREGULATING/INCREASING IL-13 AND AND PGC-1 BY ADMINISTERING ORAL DOSAGE FORM CONTAINING MICRONIZED AND NONMICRONIZED PARTICULATE METAXALONE, ALGINIC ACID AND PROPYLENE GLYCOL ALGINATE” (Primus Pharmaceuticals, Inc., priority 2022, published 2024).

Data set [1] deals with T1, monoamine oxidase A (MAO-A) (Homo sapiens, UniProt P21397).
T1 sequence (P21397 1-527): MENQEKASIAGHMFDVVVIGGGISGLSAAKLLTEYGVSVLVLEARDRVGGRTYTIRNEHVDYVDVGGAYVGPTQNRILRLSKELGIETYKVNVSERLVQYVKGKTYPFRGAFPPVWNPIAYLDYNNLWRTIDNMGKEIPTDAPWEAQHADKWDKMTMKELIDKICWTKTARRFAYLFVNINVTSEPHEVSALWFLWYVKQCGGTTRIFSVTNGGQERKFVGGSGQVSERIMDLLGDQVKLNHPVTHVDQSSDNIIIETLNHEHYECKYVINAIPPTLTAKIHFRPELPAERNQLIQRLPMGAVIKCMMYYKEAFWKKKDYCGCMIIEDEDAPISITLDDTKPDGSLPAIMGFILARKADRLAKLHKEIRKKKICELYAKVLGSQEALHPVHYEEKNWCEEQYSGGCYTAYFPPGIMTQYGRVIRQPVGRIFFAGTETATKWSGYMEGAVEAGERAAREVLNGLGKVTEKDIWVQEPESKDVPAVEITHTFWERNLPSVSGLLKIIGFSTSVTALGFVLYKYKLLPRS
To be noted: cited from earlier work.

Data set [2] concerns HMC3 microglial cells. In words: Western blot protein levels in IL-1β-stimulated HMC3 cells. Particulars: metaxalone 10, 20, 40 μg/mL, p<0.0001 vs. IL-1β. Type of data set: cell-based, Human. As for the experimental part: Western Blot Analysis. HMC3 cells were homogenized in RIPA buffer (25 mM Tris/HCl, pH 7.4; 1.0 mM EGTA; and 1.0 mM EDTA) with 1% of NP40, 0.5% of phenyl methylsulfonyl fluoride (PMSF), aprotinin, and leupeptin and pepstatin (10 μg/mL each) to perform protein extraction. Lysates were centrifuged at 15,000×g for 15 min at 4° C. and the supernatant was collected for protein determination using a specific kit (Bio-Rad DC; Bio-Rad, Richmond, CA, USA). Samples were denatured in a reducing buffer (62 mM Tris pH 6.8, 10% glycerol, 2% SDS, 5% β-mercaptoethanol, and 0.003% bromophenol blue) and proteins were separated by electrophoresis on SDS polyacrylamide gels. Following electrophoresis, samples were transferred onto a PVDF membrane (Amersham, Little Chalfont, UK) in a transfer buffer (39 mM glycine, 48 mM Tris pH 8.3, and 20% methanol) at 200 mA for 1 h. The obtained membranes were incubated with 5% non-fat dry milk in TBS/0.1% Tween for 1 h at room temperature, washed 3 times in TBS/0.1% Tween, and incubated with primary antibodies to detect pNF-κB, PPARγ, PGC-1α (Cell Signaling, Danvers, MA, USA), NRF-2, and MAO-A (Abcam, Cambridge, UK), diluted in TBS/0.1% Tween overnight at 4° C. The day after, following 3 washes with TBS/0.1% Tween, membranes were incubated with secondary peroxidase-conjugated goat anti-mouse and anti-rabbit antibodies (KPL, Gaithersburg, MD, USA) for 1 h at room temperature. After washing, membranes were analyzed by the enhanced chemiluminescence system (LumiGlo reserve; Seracare, Milford, MA, USA). The protein signal was detected and quantified by scanning densitometry using a bio-image analysis system (C-DiGit, Li-cor, Lincoln, NE, USA). The results were expressed as relative integrated intensity and β-actin (Cell Signaling, Danvers, MA, USA) was used to confirm equal protein loading. (See, […]. et al. β-Caryophyllene Inhibits Cell Proliferation through a Direct Modulation of CB2 Receptors in Glioblastoma Cells. Cancers 2020, 12, 1038).

In data set [3] the test system is CYP1A2, CYP2B6, CYP2C9, CYP2C19, CYP2D6, CYP2E1, CYP3A. To be noted: cited from earlier work.
For data set [4], the system named is Mouse Macrophages RAW264.7 cells. To be noted: LPS-stimulated mouse macrophages; cited from earlier work.
The subject of data set [5] is HMC3 microglial cells. The data set can be described thus: RT-qPCR mRNA expression in IL-1β-stimulated HMC3 microglial cells. Type of data set: cell-based, Human. To be noted: metaxalone 10, 20, 40 μg/mL, p<0.0001 vs. IL-1β. The procedure: Human microglial HMC3 cell line (CRL-3304) was obtained from ATCC (American Type Culture Collection; Manassas, VA, USA). Cells were cultured in Eagle's minimum essential medium (EMEM) with a supplement of 10% fetal bovine serum (FBS) and 1% antibiotic mixture, and were incubated at 37° C. with 5% of CO2. Both medium and supplements were provided by ATCC (Manassas, VA, USA). Cells were seeded in 6-well plates at a density of 4×10^5 cells/well. A stock solution of metaxalone (Sigma Aldrich, Milan, Italy) was prepared by dissolving metaxalone in DMSO. Sixteen hours after plating (time 0), metaxalone was added at the doses of 10, 20, and 40 μg/mL 1 h following IL-1β stimulation (5 ng/mL; Sigma Aldrich, Milan, Italy). After 6 h cells were harvested for mRNA evaluation. In a separate set of plates, cells were incubated for 24 h before MTT assay to evaluate cell viability. The dose-response curve for IL-1β stimulation can be found at Supplemental FIG. S1. Total RNA was extracted from human microglial HMC3 for RT-qPCR using Trizol LS reagent (Invitrogen, Carlsbad, CA, USA). Two μg of total RNA was reverse transcribed in a final volume of 20 μL using a Superscript VILO kit (Invitrogen, Carlsbad, CA, USA). […] The final primer concentration used to carry out the analysis was 10 μM. Samples from each group were run in duplicate and β-actin was used as an endogenous control. Results were calculated using the 2-ΔΔCT method and expressed as n-fold increase in gene expression using control group as calibrator. […]. et al. Activation of A2A Receptor by PDRN Reduces Neuronal Damage and Stimulates WNT/β-CATENIN Driven Neurogenesis in Spinal Cord Injury. Front. Pharmacol. 2018, 9, 506. Pizzino, G. et al. Effects of the antagomiRs 15b and 200b on the altered healing pattern of diabetic mice. Br. J. Pharmacol. 2018, 175, 644-655.

For data set [6], the system named is HMC3 microglial cells.

In the case of `Cc1cc(C)cc(OCC2CNC(=O)O2)c1` (stereo not drawn) [metaxalone, 5-[(3,5-dimethylphenoxy)methyl]-2-oxazolidinone], in data set [1], the MAO-A inhibition result is recorded as “reported to inhibit”. In the data set on HMC3 microglial cells [2] (dose-dependent), the NRF-2 protein levels entry is “significantly increased”. Also, in the data set on HMC3 microglial cells [2], the PGC-1α protein expression result is reported as “stimulated”, the PPARγ protein expression result was “stimulated” and the p-NF-κB protein levels entry is “blunted the increase”. In data set [3], the CYP induction entry was “inducer of CYP1A2 and CYP3A4”; the CYP inhibition entry was “inhibitor of CYP1A2, CYP2B6, CYP2C9, CYP2C19, CYP2D6, CYP2E1, and CYP3A”; the CYP substrate status entry was “substrate of CYP1A2 and CYP2C19”. Also, the inflammatory cytokines result in data set [4] was “robust reduction”. The “IL-6 mRNA expression” value with HMC3 microglial cells [5] (IL-1β (5 ng/mL)-stimulated HMC3 cells (IL-6 increased by IL-1β), 6 h, dose-dependent) is on record as “significantly reverted”. In the data set with HMC3 microglial cells [5] (IL-1β (5 ng/mL)-stimulated HMC3 cells (IL-13 decreased by IL-1β), 6 h, dose-dependent), the “IL-13 mRNA expression” value was “significantly reverted”. In addition, the “TNF-α mRNA expression” value in the data set with HMC3 microglial cells [5] (IL-1β (5 ng/mL)-stimulated HMC3 cells (TNF-α increased by IL-1β), 6 h, dose-dependent) is “significantly reverted”. For the same compound, in the data set on HMC3 microglial cells [5] (IL-1β-stimulated HMC3 cells, dose-dependent), the “NF-κB mRNA expression” value is “significantly reduced”. Moreover, in the data set on HMC3 microglial cells [5] (IL-1β-stimulated HMC3 cells), the “NRF-2 mRNA expression” value is listed as “significantly upregulated”, the “PGC-1α mRNA expression” value is “marked increase” and the “PPARγ mRNA expression” value is given as “marked increase”. Also, the “MAO-A mRNA expression” value in the data set with HMC3 microglial cells [5] (IL-1β-stimulated microglia cells, dose-dependent) is “markedly reduced”. The “cell viability (MTT)” value in the data set on HMC3 microglial cells [6] is “did not produce any toxic effect”.
